From ChEMBL document CHEMBL1127713, “Anti-HIV activity of N-(2,3-dihalogenopropyl)- and N-allyl-glycine containing pentapeptides” (Bioorg Med Chem Lett, 1994) come the findings set out here.

Values after ≈ are worked out from the molar mass of the structure shown. Values joined by “and” are separate entries in the source; they are usually repeats but may differ in a detail not shown here. Equal entries are not always repeated. Starred links: 1 amine or outer side, 2 acyl side, 3 side chain; linkers in the order of their positions; H or OH if unused. Non-standard residues stand in square brackets, D forms with d. Residues, ends and D or L forms follow the SMILES beside them. *: point of attachment. X2 = C=CCN([C@@H](C)C(=O)[*:2])[*:1]; X1 = O=C(CN(CC(Br)CBr)[*:1])[*:2]; X3 = O=C(CN(CC(Cl)CCl)[*:1])[*:2]; NAllylGly = C=CCNCC(=O)O; Boc = CC(C)(C)OC(=O)* Some results are limits rather than exact numbers.

The target of test [1] is Human immunodeficiency virus type 1 protease (Human immunodeficiency virus 1, UniProt Q72874). Briefly: Antiviral activity against HIV-1 in CEM cells. The test is classed as functional, cell-based. To be noted: ccrf-cem.
For test [2], the target named is Human immunodeficiency virus type 1 protease (Human immunodeficiency virus 1) (UniProt Q72874). Briefly: Inhibitory activity against HIV-1 Protease using Suc-TLNFPIS-4-AMC as substrate in fluorescence assay at 10e-5 concentration.
For test [3] the target is unchanged. Briefly: Inhibitory activity against HIV-1 Protease using VSQNF(NO2)PIV as substrate in spectrophotometric assay at 10e-5 concentration.
Test [4] has as its system CCRF-CEM. In words: Compound was tested for antiviral activity against HIV-1 in CEM cells; Non active compound. The test is classed as functional, cell-based, Homo sapiens.
Test [5] can be described thus: Selectivity index between IC50 and EC50. The format is functional.
Test [6] deals with CCRF-CEM. Briefly: Compound was tested for antiviral activity against HIV-1 in CEM cells. To be noted: Homo sapiens. The test is classed as functional, cell-based.
For test [7], the system named is CCRF-CEM. Briefly: Dose required for reduce the reverse transcriptase activity in infected cell supernatant. The test is classed as functional, cell-based. The note with it: Homo sapiens.

For the compound `C=CCN(CC(=O)N[C@H](C(=O)N[C@H](C(=O)OC)C(C)C)[C@@H](C)CC)C(=O)OC(C)(C)C`, the EC50 entry in test [1] is recorded as “Not Active”.
Consider `C=CCN(C(=O)[C@H](Cc1ccccc1)NC(=O)OC(C)(C)C)[C@@H](C)C(=O)N[C@H](C(=O)N[C@H](C(=O)OC)C(C)C)[C@@H](C)CC`, for which the inhibition in test [2] is 3%; in test [3] it was 0% and 7%. In test [1], the EC50 result is recorded as “Not Active”.
For the compound `C=CCNCC(=O)N[C@H](C(=O)N[C@H](C(=O)OC)C(C)C)[C@@H](C)CC`, the EC50 result in test [1] is on record as “Not Active”.
For `CC[C@H](C)[C@H](NC(=O)CN(CC(Cl)CCl)C(=O)[C@H](Cc1ccccc1)NC(=O)OC(C)(C)C)C(=O)N[C@H](C(=O)OC)C(C)C` (stereo partly specified), the inhibition was 0% in test [2]; 0% and 2% in test [3]. The EC50 result in test [1] was “Not Active”.
As to `CC[C@H](C)[C@H](NC(=O)CN(CC(Br)CBr)C(=O)[C@H](Cc1ccccc1)NC(=O)OC(C)(C)C)C(=O)N[C@H](C(=O)OC)C(C)C` (stereo partly specified), the inhibition in test [2] is 0%; in test [3], 8% and 10%. In test [1], the EC50 result was “Not Active”.
With `C=CCN(CC(=O)N[C@H](C(=O)N[C@H](C(=O)OC)C(C)C)[C@@H](C)CC)C(=O)[C@H](Cc1ccccc1)NC(=O)[C@H](C)NC(=O)[C@H](C)NC(=O)OC(C)(C)C` (Boc-AAF[NAllylGly]IV-OMe), the inhibition in test [2] is 0%; in test [3], 0% and 21%. The IC50 result in test [4] was “Not Active”. Also, in test [1], the EC50 entry is reported as “Not Active”.
With `C=CCN(C(=O)[C@H](Cc1ccccc1)NC(=O)[C@H](C)NC(=O)[C@H](C)NC(=O)OC(C)(C)C)[C@@H](C)C(=O)N[C@H](C(=O)N[C@H](C(=O)OC)C(C)C)[C@@H](C)CC` (Boc-AAF[X2]IV-OMe), the results for the inhibition in test [2] and in test [3] were 1% and 0%, respectively. The EC50 result in test [1] is listed as “Not Active”.
As for `C=CCN(CC(=O)N[C@H](C(=O)N[C@H](C(=O)OC)C(C)C)[C@@H](C)CC)C(=O)[C@H](Cc1ccccc1)NC(=O)[C@H](C)NC(=O)OC(C)(C)C` (Boc-AF[NAllylGly]IV-OMe), the inhibition is 0% in test [2]; 1% and 4% in test [3]. Besides, the Ratio in test [5] was 4.03. Further, the EC50 in test [6] was 8.15 µg/mL (≈ 12.4 µM); in test [7], 10 µg/mL (≈ 15.2 µM).
As for `CC[C@H](C)[C@H](NC(=O)CN(CC(Br)CBr)C(=O)[C@H](Cc1ccccc1)NC(=O)[C@H](C)NC(=O)OC(C)(C)C)C(=O)N[C@H](C(=O)OC)C(C)C` (stereo partly specified) (Boc-AF[X1]IV-OMe), the inhibition in test [2] was 0%; in test [3] it was 3% and 0%. For the same compound, the Ratio in test [5] is over 4.5. The EC50 in test [6] came out at 111 µg/mL (≈ 135 µM); in test [7] it was 200 µg/mL (≈ 244 µM).
With `C=CCN(C(=O)[C@H](Cc1ccccc1)NC(=O)[C@H](C)NC(=O)OC(C)(C)C)[C@@H](C)C(=O)N[C@H](C(=O)N[C@H](C(=O)OC)C(C)C)[C@@H](C)CC` (Boc-AF[X2]IV-OMe), the inhibition in test [2] was 0%; in test [3], 0% and 9%. The Ratio in test [5] is over 2.51. Moreover, the figures for the EC50 in test [6] and in test [7] were 80 µg/mL (≈ 119 µM) and 60 µg/mL (≈ 89 µM), respectively.
Regarding `CC[C@H](C)[C@H](NC(=O)CN(CC(Cl)CCl)C(=O)[C@H](Cc1ccccc1)NC(=O)[C@H](C)NC(=O)OC(C)(C)C)C(=O)N[C@H](C(=O)OC)C(C)C` (stereo partly specified) (Boc-AF[X3]IV-OMe), the inhibition in test [2] was 0%; in test [3], 0% and 12%. Further, the EC50 in test [6] was over 100 µg/mL; in test [7], 100 µg/mL (≈ 137 µM).
`C=CCN(CC(=O)N[C@H](C(=O)N[C@H](C(=O)OC)C(C)C)[C@@H](C)CC)C(=O)[C@H](Cc1ccccc1)NC(=O)OC(C)(C)C` (Boc-F[NAllylGly]IV-OMe): the inhibition in test [2] is 0%; in test [3], 10% and 13%. Besides, in test [1], the EC50 result was “Not Active”.
Take `C=CCN(CC(=O)N[C@H](C(=O)N[C@H](C(=O)OC)C(C)C)[C@@H](C)CC)C(=O)[C@H](Cc1ccccc1)NC(=O)[C@H](C)NC(=O)[C@H](C)NC(=O)[C@H](CO)NC(=O)OC(C)(C)C` (Boc-SAAF[NAllylGly]IV-OMe): the inhibition is 0% in test [2]; 14% and 0% in test [3]. Also, the EC50 result in test [1] was “Not Active”.
`C=CCN(C(=O)[C@H](Cc1ccccc1)NC(=O)[C@H](C)NC(=O)[C@H](C)NC(=O)[C@H](CO)NC(=O)OC(C)(C)C)[C@@H](C)C(=O)N[C@H](C(=O)N[C@H](C(=O)OC)C(C)C)[C@@H](C)CC` (Boc-SAAF[X2]IV-OMe): the EC50 result in test [1] is listed as “Not Active”.
Same read-out and setting: to `C=CCN(CC(=O)N[C@H](C(=O)N[C@H](C(=O)OC)C(C)C)[C@@H](C)CC)C(=O)[C@H](Cc1ccccc1)NC(=O)[C@H](C)N` (H-AF[NAllylGly]IV-OMe) belongs “Not Active”.
The same measure, in the same setting: to `C=CCN(CC(=O)N[C@H](C(=O)N[C@H](C(=O)OC)C(C)C)[C@@H](C)CC)C(=O)[C@@H](N)Cc1ccccc1` (H-F[NAllylGly]IV-OMe) belongs “Not Active”.
